{"source": "patent US20060183794A1", "about": "“Drug composition containing nf-kb inhibitor” (priority 2002, published 2006)", "key": {"[1]": {"system": "MM cell lines, KMM1, RPMI8226, and U266", "assay": "Apoptosis of multiple myeloma cell lines (Annexin-V, Hoechst staining)", "format": "cell-based", "protocol": "Further, to investigate apoptosis induction of MM cell lines by DHMEQ, the MM cell lines, KMM1, RPMI8226, and U266, were incubated for 0, 24, and 48 hours at a concentration of 10 μg/ml and the apoptosis was examined by Annexin-V staining.\nFurther, to confirm apoptosis induction in MM cell lines by DHMEQ, the MM cell lines, KMM1, RPMI8226, and U266, were incubated for 72 hours at a concentration of 10 μg/ml and the apoptosis was examined by observing nuclear condensation or fragmentation with a fluorescence microscope, using Hoechst staining."}, "[2]": {"system": "ATL cell lines (MT-1 and TL-Om1)", "assay": "MTT assay, proliferation of ATL cell lines", "format": "cell-based, human", "protocol": "Cells from the ATL cell lines (MT-1 and TL-Om1) and a control cell line (K562) were plated in 96-well plates at 1×10^5 cells/well and DHM2EQ was added at the desired final concentrations (2, 5, and 10 μg/ml). Cells to which the solvent DMSO had been added in equal volume (0 μg/ml) were used as […] incubation for 72 hours, cell viability was judged by the MTT assay. Relative MTT values were obtained as the ratio of the MMT values of DHM2EQ-treated cells to those of DHM2EQ-untreated cells, i.e., (MTT values of DHM2EQ-treated cells/MTT values of DHM2EQ-untreated cells)×100(%).\nDHM2EQ was added to the ATL cell lines (MT-1 and TL-Om1) and a control cell line (K562) at a final concentration of 10 μg/ml and the cells were incubated for 12, 24, 48, and 72 hours. The proliferation-inhibitory effect was examined by the MTT assay. Cells to which the solvent DMSO had been added in equal volume were used as controls. Relative MTT values were obtained in the same manner as the aforementioned (1)."}, "NF-κB": {"molecular_target": "NF-κB (Homo sapiens, UniProt P19838+Q04206)", "sequence (Q04206 whole entry)": "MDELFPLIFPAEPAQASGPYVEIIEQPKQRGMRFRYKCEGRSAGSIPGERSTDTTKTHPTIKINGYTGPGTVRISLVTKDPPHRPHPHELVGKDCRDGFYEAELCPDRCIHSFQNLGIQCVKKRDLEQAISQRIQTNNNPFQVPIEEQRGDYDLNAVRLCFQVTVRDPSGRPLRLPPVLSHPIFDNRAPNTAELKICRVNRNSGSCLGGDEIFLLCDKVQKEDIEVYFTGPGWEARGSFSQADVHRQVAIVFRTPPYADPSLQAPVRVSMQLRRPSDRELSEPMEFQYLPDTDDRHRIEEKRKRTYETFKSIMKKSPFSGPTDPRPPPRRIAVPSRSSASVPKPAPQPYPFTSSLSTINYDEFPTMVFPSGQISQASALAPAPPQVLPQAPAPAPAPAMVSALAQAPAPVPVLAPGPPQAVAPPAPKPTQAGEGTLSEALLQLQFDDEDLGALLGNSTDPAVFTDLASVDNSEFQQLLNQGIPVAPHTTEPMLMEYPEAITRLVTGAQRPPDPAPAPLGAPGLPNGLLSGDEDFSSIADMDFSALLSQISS", "sequence (P19838 1-433 limits assumed)": "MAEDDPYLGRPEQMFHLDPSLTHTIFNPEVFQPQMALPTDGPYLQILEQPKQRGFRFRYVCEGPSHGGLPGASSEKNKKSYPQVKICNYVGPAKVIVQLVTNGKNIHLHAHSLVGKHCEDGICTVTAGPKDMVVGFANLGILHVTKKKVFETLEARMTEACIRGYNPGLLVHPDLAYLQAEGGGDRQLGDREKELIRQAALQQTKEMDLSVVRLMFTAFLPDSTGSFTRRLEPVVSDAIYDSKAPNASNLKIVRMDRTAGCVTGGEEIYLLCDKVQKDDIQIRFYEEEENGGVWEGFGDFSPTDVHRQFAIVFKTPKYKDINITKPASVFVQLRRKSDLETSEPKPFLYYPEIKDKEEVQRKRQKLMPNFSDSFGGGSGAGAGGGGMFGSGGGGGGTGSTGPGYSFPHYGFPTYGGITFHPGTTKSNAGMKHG", "assay": "Gel shift assay of NF-κB/DNA binding in TNF-α-treated MCF-7 cells", "format": "cell-based", "design": "endogenous in cells; host or cells: MCF-7 cells treated with TNF-α", "conditions": "30 min", "protocol": "MCF-7 cells (endowed by Professor Adrian L. Harriswere, Oxford University) were plated in portions of 4 ml at 1×10^5 cells/ml in […] (2 dishes per condition). On the next day, the culture medium in the 60 mm dishes was adjusted to 2 ml, treated with DHMEQ prepared at 1, 3, and 10 μg/ml for 2 hours, and subsequently, with TNF-α at 20 ng/ml. The culture medium in 60 mm dishes was extracted with a sucker 30 min after TNF-α treatment, cells were washed twice with PBS− for external application, 1 ml of cold PBS− was added, the cells were scraped with a rubber policeman (twice), and transferred to a 15 ml centrifuge tube. Cells were collected from two 60 mm dishes into a 15 ml centrifuge tube, centrifuged at 1,000 rpm for 5 min, and the supernatant was removed. To this, 700 μl of cold PBS− was added. […] The following operations were performed in ice. […] Next, collected nuclei were suspended in 40 μl buffer C (20 mM HEPES-KOH: pH7.9 […] 25% glycerol, 420 mM NaCl, 1.5 mM MgCl2, 0.2 mM EDTA, 0.5 mM DTT, 0.2 mM PMSF) and allowed to stand for 20 min. […]\nNext, a Nick column was installed in the stand and a waste-liquid bottle was placed under the column. […] The column, fraction 1, and fraction 2 were measured individually with a Geiger counter and the readings confirmed fraction 2>the column>fraction 1. […]"}, "[3]": {"system": "human pancreatic cancer cell line Colo357", "assay": "Annexin-V/PI flow cytometry apoptosis assay, Colo357 with irradiation", "format": "cell-based", "protocol": "Next, the apoptosis-enhancing effect of DHMEQ on irradiated tumor cells was investigated. The human pancreatic cancer cell line Colo357 given 10 μg/ml DHMEQ for six hours, the human pancreatic cancer cell line Colo357 irradiated with 20 Gy radiation and then incubated for 6 hours, and the human pancreatic cancer cell line Colo357 given 10 μg/ml DHMEQ for six hours immediately after irradiation with 20 Gy radiation were subjected to Annexin-V/propidium iodide (PI) double staining. The apoptotic cells (lower right) were measured by flow cytometry and the ratio was calculated. […] On the other hand, in the cells to which DHMEQ was administered after irradiation with 20 Gy radiation, the apoptosis-inducing ability is enhanced three-fold, as compared with the cells only irradiated with 20 Gy radiation"}, "[4]": {"system": "ATL cell lines (MT-1 and TL-Om1)", "assay": "Hoechst staining apoptosis assay, ATL cell lines", "format": "cell-based, human", "conditions": "10 μg/ml, 72 hours", "protocol": "DHM2EQ was added to the ATL cell lines (MT-1 and TL-Om1) and a control cell line (K562) at a final concentration of 10 μg/ml, followed by incubation for 72 hours. Subsequently, apoptosis was examined by observing nuclear […] or fragmentation on Hoechst staining with a fluorescence microscope. Cells to which the solvent DMSO had been added in equal volume were also examined in the same manner."}}, "data": [{"molecule": "O=C(NC1=CC(=O)C2OC2C1O)c1ccccc1O", "note": "(stereo not drawn) [DHMEQ, 5,6-epoxy-4-hydroxy-3-salicyloylamino-2-cyclohexenone]", "values": [{"measurement": "apoptosis (Annexin-V staining)", "setting": "[1]; 10 μg/ml, 0, 24, 48 hours", "result": "apoptosis had been induced"}, {"measurement": "apoptosis (Hoechst staining, nuclear fragmentation)", "setting": "[1]; 10 μg/ml, 72 hours", "result": "images of nuclear fragmentation by DHMEQ treatment were observed"}, {"measurement": "cell proliferation, time course (MTT)", "setting": "[2]; 10 μg/ml, 12, 24, 48, 72 hours", "result": "inhibited in proportion to the DHM2EQ treatment time"}, {"measurement": "cell proliferation, concentration dependence (MTT)", "setting": "[2]; 2, 5, 10 μg/ml, 72 hours", "result": "inhibited in proportion to the DHM2EQ concentrations added"}, {"measurement": "binding between NF-κB and DNA", "setting": "NF-κB; DHMEQ 10 μg/ml, TNF-α 20 ng/ml", "result": "completely inhibited"}, {"measurement": "binding between NF-κB and DNA", "setting": "NF-κB; DHMEQ 1, 3, 10 μg/ml for 2 hours, then TNF-α 20 ng/ml", "result": "concentration-dependently inhibited"}, {"measurement": "apoptosis-inducing ability versus irradiation only", "setting": "[3]; 10 μg/ml six hours after 20 Gy radiation", "result": "three-fold"}, {"measurement": "apoptosis induction by DHMEQ alone", "setting": "[3]; 10 μg/ml, six hours", "result": "apoptosis was not induced"}, {"measurement": "apoptosis (nuclear fragmentation, Hoechst staining)", "setting": "[4]", "result": "apoptosis was induced"}]}]}
